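At the GI50, growth is halved. Definition used: TGI = concentration required for complete inhibition of growth.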
How the values were obtained:
Assay in all cases: inhibition of tumour cell growth, NCI panel, 384-well format
KM12 colon = system: KM12 colon
A549 NSCLC = system: A549 NSCLC
SW-620 colon = system: SW-620 colon
OVCAR-8 ovarian = system: OVCAR-8 ovarian
SK-MEL-28 melanoma = system: SK-MEL-28 melanoma
OVCAR-4 ovarian = system: OVCAR-4 ovarian
HCT-116 colon = system: HCT-116 colon
ACHN renal = system: ACHN renal
RXF 393 renal = system: RXF 393 renal
A498 renal = system: A498 renal
MALME-3M melanoma = system: MALME-3M melanoma
MDA-MB-231 breast = system: MDA-MB-231 breast
OVCAR-3 ovarian = system: OVCAR-3 ovarian
NCI-H522 lung = system: NCI-H522 lung
COLO 205 colon = system: COLO 205 colon
SNB-19 CNS = system: SNB-19 CNS
CAKI-1 renal = system: CAKI-1 renal
TK-10 renal = system: TK-10 renal
SK-OV-3 ovarian = system: SK-OV-3 ovarian
HOP-92 NSCLC = system: HOP-92 NSCLC
NCI-H460 NSCLC = system: NCI-H460 NSCLC
HL-60(TB) leukemia = system: HL-60(TB) leukemia
SF-268 CNS = system: SF-268 CNS
SF-295 CNS = system: SF-295 CNS
MDA-MB-468 breast = system: MDA-MB-468 breast
DU-145 prostate = system: DU-145 prostate
HOP-62 NSCLC = system: HOP-62 NSCLC
UO-31 renal = system: UO-31 renal
HCT-15 colon = system: HCT-15 colon
NCI-H322M lung = system: NCI-H322M lung
HT29 colon = system: HT29 colon
786-0 renal = system: 786-0 renal
K-562 leukemia = system: K-562 leukemia
HS 578T breast = system: HS 578T breast
PC-3 prostate = system: PC-3 prostate
SNB-75 CNS = system: SNB-75 CNS
MCF7 breast = system: MCF7 breast
CCRF-CEM leukemia = system: CCRF-CEM leukemia
EKVX NSCLC = system: EKVX NSCLC
HCC-2998 colon = system: HCC-2998 colon
SF-539 CNS = system: SF-539 CNS
MOLT-4 leukemia = system: MOLT-4 leukemia
OVCAR-5 ovarian = system: OVCAR-5 ovarian
SK-MEL-5 melanoma = system: SK-MEL-5 melanoma
SR leukemia = system: SR leukemia
RPMI-8226 leukemia = system: RPMI-8226 leukemia
NCI-H23 lung = system: NCI-H23 lung
IGROV1 ovarian = system: IGROV1 ovarian
U251 glioblastoma = system: U251 glioblastoma
UACC-257 melanoma = system: UACC-257 melanoma
BT-549 breast = system: BT-549 breast
SN12C renal = system: SN12C renal
M14 melanoma = system: M14 melanoma
T-47D breast = system: T-47D breast
NCI-H226 lung = system: NCI-H226 lung
MDA-MB-435 melanoma = system: MDA-MB-435 melanoma
NCI/ADR-RES ovarian = system: NCI/ADR-RES ovarian
LOX IMVI melanoma = system: LOX IMVI melanoma

## Cc1ccc(NC(=O)c2cccc(N(C)C)c2)cc1NC(=O)c1ccc(O)cc1
KM12 colon
  GI50: 30.6 µM
  TGI: > 100 µM
A549 NSCLC
  GI50: 41.5 µM
  TGI: > 100 µM
SW-620 colon
  GI50: 59.2 µM
  TGI: > 100 µM
OVCAR-8 ovarian
  GI50: 37.3 µM
  TGI: > 100 µM
SK-MEL-28 melanoma
  GI50: 26.3 µM
  TGI: 74.1 µM
OVCAR-4 ovarian
  GI50: 33.8 µM
  TGI: > 100 µM
HCT-116 colon
  GI50: 29.6 µM
  TGI: > 100 µM
ACHN renal
  GI50: 40.2 µM
  TGI: > 100 µM
RXF 393 renal
  GI50: 16.6 µM
  TGI: 33.2 µM
A498 renal
  GI50: 48.2 µM
  TGI: > 100 µM
MALME-3M melanoma
  GI50: 23.5 µM
  TGI: 71.5 µM
MDA-MB-231 breast
  GI50: 32.9 µM
  TGI: > 100 µM
OVCAR-3 ovarian
  GI50: 36.9 µM
  TGI: > 100 µM
NCI-H522 lung
  GI50: 29.4 µM
  TGI: > 100 µM
COLO 205 colon
  GI50: 18.8 µM
  TGI: 87.2 µM
SNB-19 CNS
  GI50: 89.8 µM
  TGI: > 100 µM
CAKI-1 renal
  GI50: 54.6 µM
  TGI: > 100 µM
TK-10 renal
  GI50: 26.8 µM
  TGI: 91.2 µM
SK-OV-3 ovarian
  GI50: 43.2 µM
  TGI: > 100 µM
HOP-92 NSCLC
  GI50: 38.9 µM
  TGI: > 100 µM
NCI-H460 NSCLC
  GI50: 30.6 µM
  TGI: > 100 µM
HL-60(TB) leukemia
  GI50: 12.5 µM
  TGI: 25.2 µM
SF-268 CNS
  GI50: 48.4 µM
  TGI: > 100 µM
SF-295 CNS
  GI50: 25.9 µM
  TGI: 81.4 µM
MDA-MB-468 breast
  GI50: 18.1 µM
  TGI: 50.5 µM
DU-145 prostate
  GI50: 47.5 µM
  TGI: > 100 µM
HOP-62 NSCLC
  GI50: 43.6 µM
  TGI: > 100 µM
UO-31 renal
  GI50: 30.4 µM
  TGI: > 100 µM
HCT-15 colon
  GI50: 30.4 µM
  TGI: > 100 µM
NCI-H322M lung
  GI50: 56.7 µM
  TGI: > 100 µM
HT29 colon
  GI50: 28.9 µM
  TGI: > 100 µM
786-0 renal
  GI50: 33.5 µM
  TGI: > 100 µM
K-562 leukemia
  GI50: 12 µM
  TGI: 25.2 µM
HS 578T breast
  GI50: 41.9 µM
  TGI: > 100 µM
PC-3 prostate
  GI50: 41.6 µM
  TGI: > 100 µM
SNB-75 CNS
  GI50: 54.4 µM
  TGI: > 100 µM
MCF7 breast
  GI50: 30.3 µM
  TGI: > 100 µM
CCRF-CEM leukemia
  GI50: 22.5 µM
  TGI: 70.7 µM
EKVX NSCLC
  GI50: 45.3 µM
  TGI: > 100 µM
HCC-2998 colon
  GI50: 16.9 µM
  TGI: 36.9 µM
SF-539 CNS
  GI50: 42.8 µM
  TGI: > 100 µM
MOLT-4 leukemia
  GI50: 16.8 µM
  TGI: 34.4 µM
OVCAR-5 ovarian
  GI50: 69.8 µM
  TGI: > 100 µM
SK-MEL-5 melanoma
  GI50: 14.9 µM
  TGI: 52.5 µM
SR leukemia
  GI50: 15 µM
  TGI: 33.5 µM
RPMI-8226 leukemia
  GI50: 12.7 µM
  TGI: 34.1 µM
NCI-H23 lung
  GI50: 29.3 µM
  TGI: > 100 µM
IGROV1 ovarian
  GI50: 50.1 µM
  TGI: > 100 µM
U251 glioblastoma
  GI50: 63.5 µM
  TGI: > 100 µM
UACC-257 melanoma
  GI50: 25.1 µM
  TGI: 69.1 µM
BT-549 breast
  GI50: 75.2 µM
  TGI: > 100 µM
SN12C renal
  GI50: 57 µM
  TGI: > 100 µM
M14 melanoma
  GI50: 30.5 µM
  TGI: > 100 µM
T-47D breast
  GI50: 15.1 µM
  TGI: 33.6 µM
NCI-H226 lung
  GI50: 39.6 µM
  TGI: > 100 µM
MDA-MB-435 melanoma
  GI50: 34.1 µM
  TGI: > 100 µM
NCI/ADR-RES ovarian
  GI50: 38.9 µM
  TGI: > 100 µM
LOX IMVI melanoma
  GI50: 38.5 µM
  TGI: > 100 µM

— PubChem BioAssay (NCI)
